Results on twelve compounds are retold here after patent US20250171432A1, “COMPOUNDS AND METHODS OF USE” (Tango Therapeutics, Inc., priority 2022, published 2025).

Structures are written as SMILES. Where only a bound is given, the exact number is not on record here.

Assay type in all cases: cell-based
Experiment [1] has as its system HAP1 MTAP-deleted cell line. The experiment can be described thus: Viability assay (CellTiter-Glo), HAP1 MTAP-deleted. The following applies: Homo sapiens, 168 h, HAP1 MTAP-deleted cells, 7 days. Here is the method: All test compounds are maintained as 10 mM DMSO stocks.
On Day 0, MTAP-intact and MTAP-deleted cells are seeded in a 96-well plate, and incubated in a humidified, 5 or 10% CO2 tissue culture incubator for 16-24 hours. On Day 1, the test compounds are dispensed to wells at defined concentrations using a Tecan D300e digital dispenser (n=3), and the volume of DMSO is normalized to highest class volume (0.2%). The compound-treated plates are incubated for 7 days in a humidified, 5 or 10% CO2 tissue culture incubator.
On Day 7, the plates are removed from the tissue culture incubator and allowed to equilibrate to room temperature. Then either a ½% volume CellTiter-Glo Luminescent Cell Viability Assay reagent (Promega G7572) is added to each well, or the media is removed from every well and a 1:3 dilution of CellTiter-Glo 2.0 Cell Viability Assay reagent (Promega G9241) in 1×PBS is added. Ten minutes after addition, the luminescent signal is detected by an Envision plate reader. The data are plotted as % of the DMSO control wells for the MTAP-intact and the MTAP-deleted cell lines independently, and fitted to the 4-parameter logistic (4-PL) Hill equation with maximal effect constrained to 0. The fit was performed using GraphPad Prism or the default IC50 fitting procedure in Dotmatics Studies 5.4 as part of a customized data analysis protocol.

Experiment [2] relates to SDMA (PRMT5 activity) in HAP1 MTAP-intact cell line. As to the kind of experiment: SDMA in-cell western assay, HAP1 MTAP-intact. The following applies: Homo sapiens, SDMA in-cell western, HAP1 MTAP-intact cells, 24 hours compound incubation. Here is the method:
(§1) The SAM-cooperative PRMT5 inhibitor, GSK3326595, was sourced from SelleckChem and maintained as a 10 mM DMSO stock. All test compounds are maintained as 10 mM DMSO stocks
(§2) On Day 0, MTAP-intact or MTAP-deleted cells are seeded in a 384-well plate, and incubated in a humidified, 5% CO2 tissue culture incubator for 16-24 hours. On Day 1, the test compounds are dispensed to wells at defined concentrations using a Tecan D300e digital dispenser (n=4), and the volume of DMSO is normalized to highest class volume. Each plate includes wells dosed with defined concentrations of GSK33226595 as a plate control. The compounds are incubated with cells for 24 hours in a humidified, 5% CO2 tissue culture incubator.
(§3) On Day 2, the compound-treated cells are fixed with a final concentration of 4% formaldehyde. The cells are then washed/permeabilized with 1×PBS+0.1% Triton X-100, and then blocked with 5% goat serum/1×TBS.
(§4) The cells are washed with 1×PBS+0.1% Triton X-100, and then washed again with ddH20. The plates are then imaged using a NIR fluorescent imager (LiCor Odyssey).
(§5) For data analysis, the SDMA signal is normalized to the DRAQ5 signal. Assay background is determined by the signal from wells treated with 1 μM GSK3326595, and subtracted from every well. The data are plotted as % of the DMSO control wells for the MTAP-intact and the MTAP-deleted cell lines independently, and fitted to the 4-parameter logistic (4-PL) Hill equation with maximal effect constrained to 0. The fit was performed using GraphPad Prism or the default IC50 fitting procedure in Dotmatics Studies 5.4 as part of a customized data analysis protocol.

For experiment [3], the system named is SDMA (PRMT5 activity) in HAP1 MTAP-deleted cell line. The experiment can be described thus: SDMA in-cell western assay, HAP1 MTAP-deleted. The following applies: for IC50 / IC90: Homo sapiens, SDMA in-cell western, HAP1 MTAP-deleted cells, 24 hours compound incubation; for Hap1 MTAP intact/deleted ratio: ratio of SDMA IC50 in HAP1 MTAP-intact to HAP1 MTAP-deleted cell line. Here is the method: as §1, §2, §3, §4, §5

One may read the IC50 as the concentration needed to halve the response being measured. As usually defined, the IC90 is the concentration at which the effect reaches the 90% level. Low readings indicate an effect from little substance, high ones a need for much substance. The compound `CCc1cc(NC(=O)C(=O)N2C[C@@H](C)CC[C@@H]2c2ccc3sc([C@@H]4CCN(C)CC4(C)C)nc3c2)cnc1N` [Compound 79, N-(6-amino-5-ethylpyridin-3-yl)-2-((5S)-5-methyl-2-(2-(1,3,3-trimethylpiperidin-4-yl)benzo[d]thiazol-5-yl)piperidin-1-yl)-2-oxoacetamide] gave a half-inhibitory concentration (IC50) in experiment [1] below 100 nM. In experiment [2] (HAP1, 24 h), this compound showed a 50% inhibitory concentration (IC50) of 5 to 50 nM. Further, in experiment [3], the 50% inhibitory concentration (IC50) was below 5 nM, the 90% effect concentration (IC90) is below 75 nM and the “Hap1 MTAP intact/deleted ratio” value is given as “C (“C” indicates an IC50 ratio of less than 15 fold)”.
In the same order, the values of `COc1ncc(NC(=O)C(=O)N2C[C@@H](C)CC[C@@H]2c2ccc3sc([C@@H]4C[C@@H](C)CN(C)C4)nc3c2)cc1C(N)=O` (racemic) [Compound 94, 5-(2-((2R,5S)-2-(2-(1,5-dimethylpiperidin-3-yl)benzo[d]thiazol-5-yl)-5-methylpiperidin-1-yl)-2-oxoacetamido)-2-methoxynicotinamide] are below 100 nM, above 50 nM, below 5 nM, below 75 nM and “A (“A” indicates an IC50 ratio greater than or equal to 30 fold)”.
The corresponding values for `CCc1cc(NC(=O)C(=O)N2C[C@@H](C)CC[C@@H]2c2ccc3sc(CC4(C)CCN(C)CC4)nc3c2)cnc1N` [Compound 6, N-(6-amino-5-ethylpyridin-3-yl)-2-((2R,5S)-2-(2-((1,4-dimethylpiperidin-4-yl)methyl)benzo[d]thiazol-5-yl)-5-methylpiperidin-1-yl)-2-oxoacetamide] are below 100 nM, 5 to 50 nM, below 5 nM, below 75 nM and “B (“B” indicates an IC50 ratio greater than or equal to 15 fold but lower than 30 fold)”.
The corresponding values for `CCc1cc(NC(=O)C(=O)N2C[C@@H](C)CC[C@@H]2c2ccc3sc(CC(C)(C)N(C)C)nc3c2)cnc1N` [Compound 89, N-(6-amino-5-ethylpyridin-3-yl)-2-((2R,5S)-2-(2-(2-(dimethylamino)-2-methylpropyl)benzo[d]thiazol-5-yl)-5-methylpiperidin-1-yl)-2-oxoacetamide] are below 100 nM, above 50 nM, below 5 nM, below 75 nM and “A (“A” indicates an IC50 ratio greater than or equal to 30 fold)”.
Turning to `CCc1cc(NC(=O)C(=O)N2C[C@@H](C)CC[C@@H]2c2ccc3sc([C@@H]4CCN(C)C[C@H]4OC)nc3c2)cnc1N` (single isomer, unassigned) [Compound 101], the IC50 was below 100 nM in experiment [1]; 5 to 50 nM in experiment [2] (HAP1, 24 h); below 5 nM in experiment [3]. Further, the 90% effect concentration (IC90) in experiment [3] was below 75 nM. Further, the “Hap1 MTAP intact/deleted ratio” value in experiment [3] is “B (“B” indicates an IC50 ratio greater than or equal to 15 fold but lower than 30 fold)”.
The corresponding values for `COc1ncc(NC(=O)C(=O)N2C[C@@H](C)CC[C@@H]2c2ccc3sc([C@H]4CN(C)C(C)(C)C4)nc3c2)cc1C(N)=O` [Compound 65, 2-methoxy-5-[[2-oxo-2-[(2R,5S)-5-methyl-2-[2-[(3R)-1,5,5-trimethylpyrrolidin-3-yl]-1,3-benzothiazol-5-yl]-1-piperidyl]acetyl]amino]pyridine-3-carboxamide] are below 100 nM, above 50 nM, below 5 nM, below 75 nM and “B (“B” indicates an IC50 ratio greater than or equal to 15 fold but lower than 30 fold)”.
On to `CCc1cc(NC(=O)C(=O)N2C[C@@H](C)CC[C@@H]2c2ccc3cn([C@H]4CCN(C)C4)nc3c2)cnc1N` [Compound 117, N-(6-amino-5-ethylpyridin-3-yl)-2-((2R,5S)-5-methyl-2-(2-((S)-1-methylpyrrolidin-3-yl)-2H-indazol-6-yl)piperidin-1-yl)-2-oxoacetamide], for which the IC50 in experiment [1] is below 100 nM. For the same compound, the IC50 in experiment [2] (HAP1, 24 h) is above 50 nM. Besides, in experiment [3], the IC50 lay in the range of 5 to 50 nM, the IC90 is below 75 nM and the “Hap1 MTAP intact/deleted ratio” value is “C (“C” indicates an IC50 ratio of less than 15 fold)”.
As to `COc1ncc(NC(=O)C(=O)N2C[C@@H](C)CC[C@@H]2c2ccc3sc(C4CN(C)C(C)(C)C4)nc3c2)cc1C(N)=O` (mixture of isomers) [Compound 77, 2-methoxy-5-(2-((2R,5S)-5-methyl-2-(2-(1,5,5-trimethylpyrrolidin-3-yl)benzo[d]thiazol-5-yl)piperidin-1-yl)-2-oxoacetamido)nicotinamide], the IC50 in experiment [1] is below 100 nM. This compound gave an IC50 in experiment [2] (HAP1, 24 h) above 50 nM. In addition, in experiment [3], the IC50 was below 5 nM, the IC90 is below 75 nM and the “Hap1 MTAP intact/deleted ratio” value is recorded as “A (“A” indicates an IC50 ratio greater than or equal to 30 fold)”.
In experiment [1], `CCc1cc(NC(=O)C(=O)N2C[C@@H](C)CC[C@@H]2c2cccc(OCC3CCCN3C)c2)cnc1N` (single isomer, unassigned) [Compound 121] showed a half-maximal inhibitory concentration (IC50) below 100 nM. This compound showed a concentration for half-maximal inhibition (IC50) in experiment [2] (HAP1, 24 h) above 50 nM. In experiment [3], the IC50 lay within 5 to 50 nM, the IC90 was below 75 nM and the “Hap1 MTAP intact/deleted ratio” value is on record as “B (“B” indicates an IC50 ratio greater than or equal to 15 fold but lower than 30 fold)”.
Compound `CCc1cc(NC(=O)C(=O)N2C[C@@H](C)CC[C@@H]2c2ccc3c(c2)OC2(CCN(C)CC2)O3)cnc1N` [Compound 92, N-(6-amino-5-ethylpyridin-3-yl)-2-((2R,5S)-5-methyl-2-(1′-methylspiro[benzo[d][1,3]dioxole-2,4′-piperidin]-5-yl)piperidin-1-yl)-2-oxoacetamide] had an IC50 in experiment [1] below 100 nM. In addition, the IC50 in experiment [2] was above 50 nM. Also, in experiment [3], the IC50 lay within 5 to 50 nM, the IC90 is 75 to 125 nM and the “Hap1 MTAP intact/deleted ratio” value is on record as “A (“A” indicates an IC50 ratio greater than or equal to 30 fold)”.
`CCc1cc(NC(=O)C(=O)N2C[C@@H](C)CC[C@@H]2c2ccc3sc([C@@H]4C[C@@H]5CC(F)(F)C[C@H](C4)N5C)nc3c2)cnc1N` [Compound 91, N-(6-amino-5-ethylpyridin-3-yl)-2-((2R,5S)-2-(2-(7,7-difluoro-9-methyl-9-azabicyclo[3.3.1]nonan-3-yl)benzo[d]thiazol-5-yl)-5-methylpiperidin-1-yl)-2-oxoacetamide] came in with an IC50 in experiment [1] below 100 nM. The same compound came in with a half-maximal inhibitory concentration (IC50) in experiment [2] above 50 nM. In addition, in experiment [3], the IC50 is below 5 nM, the IC90 is below 75 nM and the “Hap1 MTAP intact/deleted ratio” value is “A (“A” indicates an IC50 ratio greater than or equal to 30 fold)”.
With `CCc1cc(NC(=O)C(=O)N2C[C@@H](C)CC[C@@H]2c2ccc(F)c(OCCN(C)C)c2)cnc1N` [Compound 128, N-(6-amino-5-ethylpyridin-3-yl)-2-((2R,5S)-2-(3-(2-(dimethylamino)ethoxy)-4-fluorophenyl)-5-methylpiperidin-1-yl)-2-oxoacetamide], the half-maximal inhibitory concentration (IC50) in experiment [1] was below 100 nM. In experiment [2] (HAP1, 24 h), this compound gave a half-inhibitory concentration (IC50) above 50 nM. In addition, in experiment [3], the concentration for half-maximal inhibition (IC50) lay within 5 to 50 nM, the concentration for an effect of 90% (IC90) was above 125 nM and the “Hap1 MTAP intact/deleted ratio” value is recorded as “A (“A” indicates an IC50 ratio greater than or equal to 30 fold)”.
